This is an account of results in patent US20050288347A1, “Certain triazole-based compounds, compositions, and uses thereof” (priority 2004, published 2005).

In this assay the target is protein kinase. Kind of assay: HTS ATP-utilizing enzyme assay, off-chip mobility-shift format (Caliper HTS 250). It is filed as biochemical, human. Particulars: kinase(s) for which the compound exhibits protein kinase inhibitory activity; test compound 10 μM; active = greater than three-sigma from the mean activity of inactive compounds. Summed up:
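Single-point screen at 10 μM compound in HEPES pH 7.5 buffer with Triton X-100 and BSA, 2.5 h at 20–22 °C. Substrate-to-phosphopeptide ratio measured by off-chip microfluidic mobility shift; EDTA wells as 100% and DMSO wells as 0% control, hits called at three-sigma limits.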

“Also recorded” adds a separate entry of the source.

Take `COCCn1c(SCC(=O)O)nnc1-c1cc2c(C)nn(-c3ccccc3)c2s1`: the Kinase result is on record as “AKT1”.

Consider `COc1ccc(NCc2nnc(SCC#N)n2-c2ccccc2OC)cc1`, for which the Kinase result is on record as “FYN”. As for `COc1ccccc1-n1c(SCC(=O)O)nnc1-c1cccnc1`, the entry is “AURORA-A”; as for `CCOc1ccc(NCc2nnc(SCC#N)n2-c2cccc(Cl)c2)cc1`, “PDGFRR-α and FYN”. For `COc1ccc(-n2c(SCC(=O)O)nnc2-c2ccc(NS(=O)(=O)c3ccc(C)cc3)cc2)cc1`, the Kinase result is “CDK2-cyclinA and CDK2-cyclinE and CDK1”. As for `COc1ccc(NCc2nnc(SCC(=O)O)n2-c2ccc(OC)cc2)cc1`, the entry is “PDGFRR-α and FYN”; as for `COc1ccc(-n2c(COc3cccc4ccccc34)nnc2SCC#N)cc1`, “MAPKAPK-2 and CDK1”; as for `COc1ccc(-n2c(COc3ccc4ccccc4c3)nnc2SCC(=O)O)cc1`, “AURORA-A”. Then `COc1ccc(-n2c(COc3cccc(C)c3)nnc2SC(C)C(=O)O)cc1` (stereo not shown), with “AURORA-A”. As for `COc1ccc(-n2c(SCC(=O)O)nnc2-c2cccnc2)cc1`, the entry is “AURORA-A”.

Regarding `O=C(O)CSc1nnc(-c2ccc(O)cc2)n1Cc1ccco1`, the Kinase result is reported as “GSK3-β; also recorded: GSK3-α”.

Regarding `N#CCSc1nnc(-c2ccc(O)cc2)n1Cc1ccco1`, the Kinase entry is recorded as “GSK3-β; also recorded: GSK3-α; also recorded: AURORA-A”. As for `O=C(O)CSc1nnc(CNc2cccc(C(F)(F)F)c2)n1Cc1ccco1`, the entry is “SRC and AURORA-A”; as for `COc1cccc(OCc2nnc(SCC(=O)O)n2Cc2ccccc2)c1`, “MSK1”; as for `Cc1cc(OCc2nnc(SCC(=O)O)n2Cc2ccccc2)ccc1Cl`, “HCK”. Take `CC(Sc1nnc(CNc2ccc(Cl)cc2)n1Cc1ccccc1)C(=O)O` (stereo not shown): the Kinase entry is listed as “DAPK1”. As for `N#CCSc1nnc(CNc2ccc(Cl)cc2)n1Cc1ccccc1`, the entry is “MSK1”; as for `O=C(O)CSc1nnc(CNc2ccc(F)cc2)n1Cc1ccccc1`, “DAPK1”; as for `N#CCSc1nnc(COc2cccc3ccccc23)n1Cc1ccccc1`, “CDK1 and CHEK2”. As to `CCn1c(SCC(=O)O)nnc1-c1cc2c(C)nn(-c3ccccc3)c2s1`, the Kinase entry was “FYN”. Then `CCn1c(SCC#N)nnc1-c1ccc(S(=O)(=O)N2CCOCC2)cc1`, with “AURORA-A”. As for `CCn1c(SCC(=O)O)nnc1-c1ccc(S(=O)(=O)N2CCOCC2)cc1`, the entry is “CDK1”; as for `CCn1c(CNc2cccc(C(F)(F)F)c2)nnc1SCC#N`, “CDK2 and CDK1 and CHEK2”.

`CCn1c(COc2ccc(OC)cc2)nnc1SCC(=O)O`: the Kinase result is given as “AKT1”.

Regarding `CCn1c(COc2cccc3ccccc23)nnc1SCC#N`, the Kinase result is on record as “AURORA-A”. As for `Cn1c(COc2cccc3ccccc23)nnc1SCC(=O)O`, the entry is “CDK2-cyclinA; also recorded: AURORA-A”; as for `COc1ccccc1-n1c(SCC#N)nnc1-c1ccccc1O`, “AURORA-A”. As for `COc1ccc(-n2c(SCC(=O)O)nnc2-c2ccccc2OC)cc1`, the entry is “AURORA-A”; as for `O=C(O)CSc1nnc(-c2ccc(S(=O)(=O)N3CCOCC3)cc2)n1-c1ccccc1`, “CHEK2”; as for `COc1ccc(-n2c(SCC(=O)O)nnc2-c2ccc(NC(=O)c3ccccc3)cc2)cc1`, “CHEK2”. Then `COc1ccc(-n2c(SC(C)C(=O)O)nnc2-c2ccc(NC(=O)c3ccccc3)cc2)cc1` (stereo not shown), with “CHEK2; also recorded: AURORA-A”; and `COc1ccc(-n2c(SC(C)C(=O)O)nnc2-c2ccc(O)cc2)cc1` (stereo not shown), with “GSK3-β; also recorded: MAPKAPK-2”; and `C=C(C)Cn1c(SCC(=O)O)nnc1-c1ccc(OC)cc1`, with “MSK1”. `O=C(O)CSc1nnc(-c2ccc([N+](=O)[O-])cc2)n1CC1CCCO1` (stereo not shown): the Kinase entry is reported as “PDGFRR-α”.

Turning to `COCCCn1c(SCC(=O)O)nnc1-c1ccc(C(C)(C)C)cc1`, the Kinase entry is “CHEK2”.

Consider `COc1ccc(-n2c(CNc3cc(C(F)(F)F)ccc3Cl)nnc2SCC#N)cc1`, for which the Kinase entry is listed as “CDK1”. Consider `CCn1c(CNc2ccc(C)c(Cl)c2)nnc1SCC(=O)O`, for which the Kinase result is reported as “PDGFRR-α”. As for `Cc1ccc(NCc2nnc(SCC#N)n2-c2ccccc2)cc1Cl`, the entry is “AURORA-A”; as for `CCn1c(CNc2cccc(Cl)c2)nnc1SCC(=O)O`, “CDK2-cyclinA”. Then `Cn1c(CNc2cccc(Cl)c2)nnc1SCC#N`, with “AURORA-A”.

With `Cn1c(COc2ccc(Br)cc2)nnc1SCC(=O)O`, the Kinase result is “AURORA-A”. As for `CCn1c(COc2ccc(Cl)c(C)c2)nnc1SCC#N`, the entry is “AURORA-A”; as for `CCn1c(COc2ccc(Cl)c(C)c2)nnc1SCC(=O)O`, “MSK1”; as for `Cc1cc(OCc2nnc(SC(C)C(=O)O)n2-c2ccccc2)ccc1Cl` (stereo not shown), “AURORA-A”. As for `CCn1c(CNc2ccc(Cl)cc2)nnc1SCC#N`, the entry is “LYNA and DYRK2”. Then `CCOc1ccc(NCc2nnc(SCC#N)n2-c2ccc(C)cc2)cc1`, with “FYN”; and `CCOc1ccc(NCc2nnc(SCC(=O)O)n2-c2ccc(C)cc2)cc1`, with “FYN”. `Cc1ccc(-n2c(CNc3ccc(F)cc3)nnc2SCC(=O)O)cc1`: the Kinase result is on record as “DAPK1; also recorded: AURORA-A”.

On to `COc1ccc(OCc2nnc(SCC(=O)O)n2-c2ccc(C)cc2)cc1`, for which the Kinase entry is “AURORA-A”.

For `COc1ccc(NCc2nnc(SCC(=O)O)n2-c2ccc(C)cc2)cc1`, the Kinase entry was “FYN”. As for `COc1ccc(NCc2nnc(SCC#N)n2-c2ccc(C)cc2)cc1`, the entry is “FYN and PDGFRR-α and AURORA-A”; as for `COc1ccc(NCc2nnc(SC(C)C(=O)O)n2-c2ccccc2)cc1` (stereo not shown), “FYN( and PDGFRR-α”; as for `Cc1ccc(-n2c(COc3cccc4ccccc34)nnc2SC(C)C(=O)O)cc1` (stereo not shown), “AKT1”.

Turning to `Cc1ccc(NCc2nnc(SCC#N)n2-c2ccc(Cl)cc2)cc1`, the Kinase entry is “PDGFRR-α and CDK1”. As for `COc1ccc(-n2c(CNc3ccc(C)cc3)nnc2SCC(=O)O)cc1`, the entry is “PDGFRR-α”; as for `O=C(O)CSc1nnc(-c2ccco2)n1CC1CCCO1` (stereo not shown), “AURORA-A”; as for `C=CCn1c(Sc2c(O)nc3ccccc3c2-c2ccccc2)nnc1-c1ccc(Cl)c(Cl)c1`, “FLT-3”. Then `COc1cccc(OC(=O)CSc2nnc(CNc3c(C)cccc3C)n2-c2ccccc2)c1`, with “C-TAK1”; and `Cn1c(SCSC#N)nnc1-c1ccc(S(=O)(=O)N2CCOCC2)cc1`, with “GSK3-β”. As for `COc1ccc(NCc2nnc(S)n2-c2ccc(OC)cc2)cc1`, the entry is “PDGFRR-α; also recorded: AURORA-A; also recorded: GSK3-α”; as for `Cn1c(SCC(=O)CC(=O)Nc2ccccc2)nnc1-c1ccc(O)cc1`, “AURORA-A”; as for `CCn1c(S)nnc1-c1ccc(S(=O)(=O)N2CCN(C)CC2)cc1`, “GSK3-α; also recorded: GSK3-β”.

`O=c1c(Sc2nnc(-c3ccccc3)n2C2CCCCC2)c(Br)cnn1-c1ccccc1`: the Kinase entry was “GSK3-α”. As for `COc1ccc(-n2c(SCC#N)nnc2-c2ccc(NC(=O)c3ccccc3)cc2)cc1`, the entry is “CHEK2 and AKT1”; as for `COc1ccc(-n2c(SCC#N)nnc2-c2ccc(NS(=O)(=O)c3ccc(C)cc3)cc2)cc1`, “CDK2-cyclinA and CDK1 and CDK2-cyclinE”; as for `O=C(CSc1nnc(-c2ccccc2O)n1Cc1ccco1)OCc1ccccc1`, “GSK3-α”.

With `COc1ccccc1-n1c(SCC(=O)OCc2ccccc2)nnc1-c1ccccc1O`, the Kinase entry is reported as “KIT”. As for `COCCCn1c(SCC(=O)OCc2ccccc2)nnc1-c1ccc(OC)cc1`, the entry is “CDK2-cyclinE and MSK1”. Then `COc1ccccc1-n1c(SCC(=O)OCc2ccccc2)nnc1-c1ccco1`, with “GSK3-α; also recorded: AURORA-A”.

As for `COc1ccc(-c2nnc(SCC(=O)OC3CCCCCC3)n2-c2cccc(C(F)(F)F)c2)cc1`, the Kinase result was “FLT-3”. As for `O=C(CSc1nnc(-c2ccc(O)cc2)n1Cc1ccccc1)OC1CCCCC1`, the Kinase entry is listed as “GSK3-α; also recorded: GSK3-β”. As for `COCCn1c(SCC(=O)OC2CCCCC2)nnc1-c1cc2ccccc2cc1O`, the entry is “DAPK1”; as for `Cn1c(SCC(=O)OC2CCCCC2)nnc1-c1cc2ccccc2cc1O`, “AURORA-A; also recorded: DAPK1; also recorded: c-TAK1”. Regarding `Cn1c(SCC(=O)OC2CCCCC2)nnc1-c1ccc(O)cc1`, the Kinase entry is listed as “GSK3-α”. Then `Cc1ccc(NCc2nnc(SCC(=O)OC3CCCCC3)n2-c2ccccc2)cc1Cl`, with “PAK2 and CHEK1”; and `CCOC(=O)CSc1nnc(-c2ccc(O)cc2)n1Cc1ccco1`, with “GSK3-β; also recorded: GSK3-α”. Then `CCOC(=O)CSc1nnc(COc2ccc3ccccc3c2)n1C`, with “MAPKAPK-2”; and `CCOC(=O)CSc1nnc(-c2ccccc2O)n1-c1ccccc1OC`, with “AURORA-A”. As for `CCOC(=O)CSc1nnc(-c2cc3ccccc3cc2O)n1C`, the entry is “FYN”. Turning to `CCOC(=O)CSc1nnc(CNc2cc(Cl)ccc2Cl)n1CC`, the Kinase entry was “DYRK2”. Then `CCOC(=O)CSc1nnc(CNc2ccc(C)c(Cl)c2)n1CC1CCCO1` (stereo not shown), with “CHEK2”; and `CCOC(=O)CSc1nnc(CSc2nc3ccccc3s2)n1C`, with “CSK”; and `COc1ccc(NCc2nnc(SCC(=O)OC(C)C)n2-c2ccc(OC)cc2)cc1`, with “FYN and CDK2-cyclinE”. Take `CC(C)OC(=O)CSc1nnc(-c2cccnc2)n1Cc1ccco1`: the Kinase entry is recorded as “AKT1”. Then `COCCn1c(SCC(=O)OC(C)C)nnc1-c1cc2ccccc2cc1O`, with “FYN”; and `COC(=O)CSc1nnc(CNc2ccc(OC)cc2)n1C`, with “PDGFRR-α and FYN”; and `COC(=O)CSc1nnc(CNc2ccc(OC)cc2)n1-c1ccccc1`, with “PDGFRR-α”. As for `CCn1c(CNc2cccc(C(F)(F)F)c2)nnc1SCC(=O)Oc1ccc(C)cc1`, the Kinase entry was “CDK2-cyclinA and CDK1 and CHEK2”.
